This is an account of results in patent US9540314B2, “N-cycloalkyl-N-[(cycloalkenylphenyl)methylene]-(thio) carboxamide derivatives” (BAYER INTELLECTUAL PROPERTY GMBH, priority 2012, dated 2017).

The term logP denotes a log measure of how a compound divides between an organic and an aqueous phase. A word on the chromatographic logP: it is a lipophilicity value derived from retention on a column.

The test system of one data set is Puccinia recondita. The data set can be described thus: In vivo preventive test on Puccinia recondita (brown rust on wheat). To be noted: 500 ppm of active ingredient; wheat plants, preventive spray; grading 12 days after contamination. The method, then: (§1) The active ingredients tested are prepared by homogenization in a mixture of acetone/tween/DMSO, and then diluted with water to obtain the desired active material concentration.
(§2) Wheat plants (“Scipion” variety), sown in starter cups on a 50/50 peat soil pozzolana substrate and grown at 22° C., are treated at the 1 leaf stage (10 cm height) by spraying with the active ingredient prepared as described above. Plants, used as controls, are treated with the mixture of acetone/tween/DMSO/water not containing the active material.
After 24 hours, the plants are contaminated by spraying the leaves with an aqueous suspension of Puccinia recondita spores (100 000 spores per mL). The spores are collected from an infected plant and are suspended in water containing 2.5 mL/L of Tween 80 at 10%. The contaminated wheat plants are incubated for 24 hours at 20° C. and at 100% relative humidity, and then for 10 days at 20° C. and at 70-80% relative humidity.
(§3) Grading (% of efficacy) is carried out 12 days after the contamination, in comparison with the control plants.
Under these conditions, good (at least 70%) to total protection is observed at a dose of 500 ppm of active ingredient with the following compounds from table I: […]

A further data set relates to Sphaerotheca fuliginea. Put plainly: In vivo preventive test on Sphaerotheca fuliginea (powdery mildew on cucurbits). Particulars: 500 ppm, gherkin plants, grading 12 days after contamination. The method, then: (§4) The active ingredients tested are prepared by homogenization in a mixture of acetone/tween/DMSO and then diluted with water to obtain the desired active material concentration.
Gherkin plants (“Vert petit de Paris” variety), sown in starter cups on a 50/50 peat soil-pozzolana substrate and grown at 24° C., are treated at the Z11 cotyledon stage by spraying with the active ingredient prepared as described above. Plants, used as controls, are treated with the mixture of acetone/tween/DMSO/water not containing the active material.
After 24 hours, the plants are contaminated by spraying the cotyledons with an aqueous suspension of Sphaerotheca fuliginea spores (100 000 spores per mL). The spores are collected from infected plants. The contaminated gherkin plants are incubated at about 20° C. and at 70-80% relative humidity.
as §3
Under these conditions, good (at least 70%) to total protection is observed at a dose of 500 ppm of active ingredient with the following compounds from table A: […]

A further data set deals with Septoria tritici. The data set can be described thus: In vivo preventive test on Septoria tritici (wheat). Particulars: 500 ppm of active ingredient; wheat plants, preventive spray; grading 24 days after contamination. The protocol: as §1, §2
After 24 hours, the plants are contaminated by spraying the leaves with an aqueous suspension of cryopreserved Septoria tritici spores (500 000 spores per mL). The contaminated wheat plants are incubated for 72 hours at 18° C. and at 100% relative humidity, and then for 21 days at 90% relative humidity.
Grading (% of efficacy) is carried out 24 days after the contamination, in comparison with the control plants.
Under these conditions, good (at least 70%) to total protection is observed at a dose of 500 ppm of active ingredient with the following compounds from table J: […]

A short description of data set [1]: log P by HPLC on a reversed-phase column (C 18), EEC Directive 79/831 Annex V.A8. Type of data set: physicochemical. Particulars: Table 1, HPLC C 18, 40° C., 0.1% aqueous formic acid and acetonitrile, several values = mixture of 2 or more isomers; for chromatographic logP: reversed-phase HPLC column (C 18). The method, then: In table 1, the log P values were determined in accordance with EEC Directive 79/831 Annex V.A8 by HPLC (High Performance Liquid Chromatography) on a reversed-phase column (C 18), using the method described below:
Temperature: 40° C.; Mobile phases: 0.1% aqueous formic acid and acetonitrile; linear gradient from 10% acetonitrile to 90% acetonitrile.
Calibration was carried out using unbranched alkan-2-ones (comprising 3 to 16 carbon atoms) with known log P values (determination of the log P values by the retention times using linear interpolation between two successive alkanones). lambda-max-values were determined using UV-spectra from 200 nm to 400 nm and the peak values of the chromatographic signals.

Another data set has as its system Uromyces appendiculatus. Put plainly: In vivo preventive test on Uromyces appendiculatus (bean rust). To be noted: bean plants. The method, then:
as §1
After 24 hours, the plants are contaminated by spraying the leaves with an aqueous suspension of Uromyces appendiculatus spores (150 000 spores per mL). The spores are collected from infected plants and are suspended in water containing 2.5 mL/L of Tween 80 at 10%. The contaminated bean plants are incubated for 24 hours at 20° C. and at 100% relative humidity, and then for 10 days at 20° C. and at 70-80% relative humidity.
Grading (% of efficacy) is carried out 11 days after the contamination, in comparison with the control plants.

The subject of the next data set is Botrytis cinerea. Put plainly: In vivo preventive test on Botrytis cinerea (grey mould), gherkin plants. To be noted: 500 ppm of active ingredient, preventive spray, grading 4 to 5 days after contamination. The protocol:
as §4
Gherkin plants (“Vert petit de Paris” variety), sown in starter cups on a 50/50 peat soil pozzolana substrate and grown at 24° C., are treated at the Z11 cotyledon stage by spraying with the active ingredient prepared as described above. Plants, used as controls, are treated with the mixture of acetone/tween/DMSO/water not containing the active material.
After 24 hours, the plants are contaminated by spraying the cotyledons with an aqueous suspension of cryopreserved Botrytis cinerea spores (50 000 spores per mL). The spores are suspended in a nutrient solution composed of 10 g/L of PDB, 50 g/L of D-Fructose, 2 g/L of NH4NO3 and 1 g/L of KH2PO4. The contaminated gherkin plants are incubated at 17° C. and at 90% relative humidity.
Grading (% of efficacy) is carried out 4 to 5 days after the contamination, in comparison with the control plants.
Under these conditions, good (at least 70%) to total protection is observed at a dose of 500 ppm of active ingredient with the following compounds from table F: […]

The subject of another data set is Pyrenophora teres. Put plainly: In vivo preventive test on Pyrenophora teres (barley). Particulars: barley plants, grading 14 days after contamination. The method, then: as §1
Barley plants (“Plaisant” variety), sown in starter cups on a 50/50 peat soil pozzolana substrate and grown at 22° C., are treated at the 1 leaf stage (10 cm height) by spraying with the active ingredient prepared as described above. Plants, used as controls, are treated with the mixture of acetone/tween/DMSO/water not containing the active material.
After 24 hours, the plants are contaminated by spraying the leaves with an aqueous suspension of Pyrenophora teres spores (12 000 spores per mL). The spores are collected from a 12-day-old culture.
The contaminated barley plants are incubated for 48 hours at 20° C. and at 100% relative humidity, and then for 12 days at 20° C. at 70-80% relative humidity.
Grading (% of efficacy) is carried out 14 days after the contamination, in comparison with the control plants.
Under these conditions, good (at least 70%) to total protection is observed at a dose of 500 ppm of active ingredient with the following compounds from table H1: […]

Where [2] appears, read: 500 ppm of active ingredient, preventive spray, grading 11 days after contamination (table K1).
The mark [3] stands for this setting: dose 100 ppm, comparison with saturated analogues (table K2).
[4] abbreviates: dose 500 ppm, comparison with saturated analogues (table K2).
[5] abbreviates: 500 ppm of active ingredient, preventive spray.

Take `CC1CC=C(c2ccc(Cl)cc2CN(C(=O)c2c(C(F)F)nn(C)c2F)C2CC2)CC1` (racemic) [I.46]: the Efficacy amounted to 75% in the data set on Puccinia recondita, 100% in the data set on Sphaerotheca fuliginea and 86% with Septoria tritici. In addition, the logP in data set [1] is given as 5.36.
For the compound `Cn1cc(C(=O)N(Cc2ccccc2C2=CCCC2)C2CC2)c(C(F)F)n1` [I.2], the Efficacy in the data set on Puccinia recondita is on record as 94%; in the data set on Uromyces appendiculatus (setting [2]), 100%; in the data set with Sphaerotheca fuliginea, 94%; in the data set on Septoria tritici, 88%; in the data set with Botrytis cinerea, 100%. The logP in data set [1] worked out at 3.63.
Consider `Cn1nc(C(F)F)c(C(=O)N(Cc2ccccc2C2=CCCC2)C2CC2)c1F` [I.3], for which the Efficacy with Puccinia recondita is recorded as 98%; in the data set with Uromyces appendiculatus (setting [2]), 100%; in the data set with Uromyces appendiculatus (setting [3]) it was 99%; in the data set on Uromyces appendiculatus (setting [4]) it was 100%; with Sphaerotheca fuliginea it was 100%; in the data set with Septoria tritici it was 98%. This compound also came in with an Efficacy in the data set with Pyrenophora teres (Table H2, 100 ppm, preventive) of 86%. For the same compound, the lipophilicity (logP) in data set [1] was 4.06.
In the case of `Cn1nc(C(F)F)c(C(=O)N(Cc2ccccc2C2=CCCC2)C2CC2)c1Cl` [I.4], the Efficacy with Puccinia recondita was found to be 100%; with Uromyces appendiculatus (setting [2]), 99%; with Botrytis cinerea it was 77%. In addition, the logP in data set [1] came to 4.26.
Take `Cn1nc(C(F)F)c(C(=O)N(Cc2cc(C3=CCCC3)ccc2C2=CCCC2)C2CC2)c1F` [I.18]: in data set [1], the logP amounted to 5.62. The Efficacy in the data set on Botrytis cinerea is listed as 100%.
As for `CC(c1cc(F)ccc1C1=CCCC1)N(C(=O)c1c(C(F)F)nn(C)c1F)C1CC1` (stereo not shown) [I.25, N-{1-[2-(cyclopent-1-en-1-yl)-5-fluorophenyl]ethyl}-N-cyclopropyl-3-(difluoromethyl)-5-fluoro-1-methyl-1H-pyrazole-4-carboxamide], the Efficacy in the data set on Sphaerotheca fuliginea, in the data set with Septoria tritici, in the data set on Pyrenophora teres (setting [5]) and in the data set on Botrytis cinerea was 100% in each case. Further, the chromatographic logP in data set [1] is 4.34.
Turning to `Cn1cc(C(=O)N(Cc2ccccc2C2=CCCCC2)C2CC2)c(C(F)F)n1` [I.27], the Efficacy in the data set on Puccinia recondita is 88%; in the data set with Uromyces appendiculatus (setting [2]) it was 98%; in the data set with Uromyces appendiculatus (setting [3]), 24%; with Uromyces appendiculatus (setting [4]), 98%; in the data set on Sphaerotheca fuliginea, 98%; with Septoria tritici, 94%. The Efficacy in the data set with Botrytis cinerea came out at 100%. In addition, the lipophilicity (logP) in data set [1] was 3.99.
Turning to `Cn1nc(C(F)F)c(C(=O)N(Cc2ccccc2C2=CCCCC2)C2CC2)c1F` [I.28], the Efficacy in the data set on Puccinia recondita is 100%; in the data set on Uromyces appendiculatus (setting [2]), 100%; in the data set with Uromyces appendiculatus (setting [3]) it was 98%; in the data set on Uromyces appendiculatus (setting [4]) it was 100%; in the data set with Sphaerotheca fuliginea it was 100%; in the data set on Septoria tritici it was 94%. Besides, the results for the Efficacy in the data set with Pyrenophora teres (setting [5]) and in the data set with Botrytis cinerea were 79% and 100%, respectively. Moreover, the logP in data set [1] is 4.49.
Consider `Cn1cc(C(=O)N(Cc2ccccc2C2=CCCCC2)C2CC2)c(C(F)F)c1` [I.30], for which the results for the Efficacy in the data set with Uromyces appendiculatus (setting [2]), with Sphaerotheca fuliginea and with Botrytis cinerea were 78%, 83% and 81%, respectively. Also, in data set [1], the logP was 4.46.
As to `O=C(c1ccsc1I)N(Cc1ccccc1C1=CCCCC1)C1CC1` [I.31], in data set [1], the logP amounted to 5.22. Also, in the data set on Botrytis cinerea, the Efficacy worked out at 100%.
As to `Cn1nc(C(F)F)c(C(=O)N(Cc2cc(C3=CCCCC3)ccc2Cl)C2CC2)c1F` [I.33], the logP in data set [1] is 4.92. The Efficacy with Pyrenophora teres (Table H2, 100 ppm, preventive) was found to be 86%.
Turning to `Cn1nc(C(F)F)c(C(=O)N(Cc2cc(C3=CCCCC3)ccc2Cl)C2CC2)c1Cl` [I.34], the logP in data set [1] worked out at 5.14. The Efficacy in the data set on Pyrenophora teres (Table H2, 100 ppm, preventive) is on record as 79%.
As for `Cn1nc(C(F)F)c(C(=S)N(Cc2cc(Cl)ccc2C2=CCCCC2)C2CC2)c1F` [I.43], the Efficacy in the data set with Puccinia recondita is listed as 78%; in the data set on Uromyces appendiculatus (setting [2]) it was 89%; in the data set with Sphaerotheca fuliginea, 80%; with Septoria tritici it was 97%; with Pyrenophora teres (setting [5]), 71%. Besides, the logP in data set [1] is listed as 5.56.
As to `Cn1nc(C(F)F)c(C(=O)N(Cc2cc(F)ccc2C2=CCCCC2)C2CC2)c1Cl` [I.44, 5-chloro-N-[2-(cyclohex-1-en-1-yl)-5-fluorobenzyl]-N-cyclopropyl-3-(difluoromethyl)-1-methyl-1H-pyrazole-4-carboxamide], the figures for the Efficacy in the data set with Puccinia recondita and in the data set with Septoria tritici were 81% and 79%, respectively. Further, the chromatographic logP in data set [1] came out at 4.69.
Turning to `Cn1cc(C(=O)N(Cc2ccccc2C2=CCCCCC2)C2CC2)c(C(F)F)n1` [I.49], the Efficacy is recorded as 81% with Puccinia recondita; 99% in the data set with Uromyces appendiculatus (setting [2]); 100% with Sphaerotheca fuliginea; 88% in the data set with Septoria tritici; 79% in the data set on Pyrenophora teres (setting [5]); 100% in the data set with Botrytis cinerea. The logP in data set [1] was 4.44.
For the compound `Cn1cc(C(=O)N(Cc2ccccc2C2=CCCCCC2)C2CC2)c(C(F)F)c1` [I.50], the Efficacy in the data set with Puccinia recondita is 81%; in the data set with Uromyces appendiculatus (setting [2]) it was 99%; with Sphaerotheca fuliginea it was 100%; with Septoria tritici, 100%; in the data set on Botrytis cinerea, 98%. For the same compound, in data set [1], the logP is on record as 4.93.
Take `Cn1nc(C(F)F)c(C(=O)N(Cc2ccccc2C2=CCCCCC2)C2CC2)c1Cl` [I.51]: the Efficacy with Puccinia recondita is 88%; with Uromyces appendiculatus (setting [2]), 96%; in the data set with Sphaerotheca fuliginea it was 83%; with Septoria tritici, 81%. Also, the logP in data set [1] came to 5.06.
On to `Cn1cc(C(=O)N(Cc2cc(Cl)ccc2C2=CCCCCC2)C2CC2)c(C(F)F)n1` [I.57], for which, in data set [1], the logP amounted to 4.87. The compound also came in with an Efficacy in the data set with Pyrenophora teres (Table H2, 100 ppm, preventive) of 79%.
